Where a name gives a salt, the structure may show the parent alone.
Assays:
Type in all cases: in vitro ADME
human hepatocytes = assay: Metabolite characterization in human hepatocytes; conditions: human hepatocyte 1 h incubates of ETN101; ND:<1.2E+05 peak area
Protocol: (§1) We mixed 60 μL aliquots of 40 μM ETN101 in incubation medium and an equal volume of human, mouse, rat, dog, or monkey hepatocyte suspension in 96-well plates and incubated for 0 or 1 h in a CO2 incubator at 37 °C. The reactions were quenched by adding 120 µL of ice-cold acetonitrile to each well, and the cell suspension was sonicated for 5 min at 4 °C. Subsequently, centrifugation was carried out at 15,000× g for 10 min at 4 °C. Next, the supernatants were evaporated to dryness using a vacuum concentrator, and residues were re-dissolved in 70 μL of 30% acetonitrile. Each sample (5 μL aliquots) was analyzed using LC–HRMS system.
(§2) For metabolite characterization, a Vanquish HPLC system (Thermo Fisher Scientific, San José, CA, USA) coupled with a Q-Exactive Orbitrap mass spectrometer (Thermo Fisher Scientific Inc., Waltham, MA, USA) was used at Core Research Support Center for Natural Products and Medical Materials at Yeungnam University. […] The eluent from the column was directly injected into the mass spectrometer using a heated electrospray ionization (HESI) source in positive ionization mode. […] The spray voltage was 3.0 kV and the capillary temperature was 320 °C. Full scan MS^1 with a data-dependent MS^2 acquisition mode was applied to obtain MS^1 scan data ranging from m/z 80 to 900, at a resolution of 70,000, whereas data-dependent MS^2 spectra were acquired for the five most abundant peaks per cycle at a resolution of 35,000. The parallel reaction monitoring (PRM) mode was used to obtain the MS^2 spectra of putative metabolites detected at low peak intensities in the data-dependent MS^2 acquisition mode. Data were collected and interpreted using Thermo Scientific Xcalibur™ Software (Thermo Fisher Scientific).

mouse hepatocytes = assay: Metabolite characterization in mouse hepatocytes; conditions: mouse hepatocyte 1 h incubates of ETN101; ND:<1.2E+05 peak area
Protocol: as §1, §2

rat hepatocytes = assay: Metabolite characterization in rat hepatocytes; conditions: rat hepatocyte 1 h incubates of ETN101; ND:<1.2E+05 peak area
Protocol: as §1, §2

monkey hepatocytes = assay: Metabolite characterization in monkey hepatocytes; conditions: monkey hepatocyte 1 h incubates of ETN101; ND:<1.2E+05 peak area
Protocol: as §1, §2

dog hepatocytes = assay: Metabolite characterization in dog hepatocytes; conditions: dog hepatocyte 1 h incubates of ETN101; ND:<1.2E+05 peak area
Protocol: as §1, §2

Relative peak area (%) (human hepatocytes)	Relative peak area (%) (mouse hepatocytes)	Relative peak area (%) (rat hepatocytes)	Relative peak area (%) (monkey hepatocytes)	Relative peak area (%) (dog hepatocytes)	Compound
0.3	0.9	5.7	5.8		CC(=O)Nc1ccc(-c2nc3ccccc3s2)cc1 [M2, N-Acetyl-CJM-126]
0.1	< 0.1	< 0.1	< 0.1	< 0.1	Nc1ccc(-c2nc3ccccc3s2)cc1O [M5, 3′-OH-CJM-126]
0.1	< 0.1	0.1	< 0.1	0.5	O=C(O)[C@H]1O[C@@H](Nc2ccc(-c3nc4ccccc4s3)cc2)[C@H](O)[C@@H](O)[C@@H]1O [M9, CJM-126 glucuronide]
		< 0.1			O=S(=O)(O)Nc1ccc(-c2nc3ccccc3s2)cc1 [M10, CJM-126 sulfate]
